# Experimental data from US10385056B2, “4-substituted pyrrolo[2,3-d]pyrimidine compound and use thereof” (JIANGSU CAREFREE PHARMACEUTICAL CO., LTD, priority 2014, dated 2019).
# Legend:
# JAK3 = target: T1, JAK3 (Homo sapiens, UniProt P52333); experiment: Caliper Mobility Shift Assay, kinase inhibition; format: biochemical; details: ATP by Km value
# T1 sequence (P52333 1-1124): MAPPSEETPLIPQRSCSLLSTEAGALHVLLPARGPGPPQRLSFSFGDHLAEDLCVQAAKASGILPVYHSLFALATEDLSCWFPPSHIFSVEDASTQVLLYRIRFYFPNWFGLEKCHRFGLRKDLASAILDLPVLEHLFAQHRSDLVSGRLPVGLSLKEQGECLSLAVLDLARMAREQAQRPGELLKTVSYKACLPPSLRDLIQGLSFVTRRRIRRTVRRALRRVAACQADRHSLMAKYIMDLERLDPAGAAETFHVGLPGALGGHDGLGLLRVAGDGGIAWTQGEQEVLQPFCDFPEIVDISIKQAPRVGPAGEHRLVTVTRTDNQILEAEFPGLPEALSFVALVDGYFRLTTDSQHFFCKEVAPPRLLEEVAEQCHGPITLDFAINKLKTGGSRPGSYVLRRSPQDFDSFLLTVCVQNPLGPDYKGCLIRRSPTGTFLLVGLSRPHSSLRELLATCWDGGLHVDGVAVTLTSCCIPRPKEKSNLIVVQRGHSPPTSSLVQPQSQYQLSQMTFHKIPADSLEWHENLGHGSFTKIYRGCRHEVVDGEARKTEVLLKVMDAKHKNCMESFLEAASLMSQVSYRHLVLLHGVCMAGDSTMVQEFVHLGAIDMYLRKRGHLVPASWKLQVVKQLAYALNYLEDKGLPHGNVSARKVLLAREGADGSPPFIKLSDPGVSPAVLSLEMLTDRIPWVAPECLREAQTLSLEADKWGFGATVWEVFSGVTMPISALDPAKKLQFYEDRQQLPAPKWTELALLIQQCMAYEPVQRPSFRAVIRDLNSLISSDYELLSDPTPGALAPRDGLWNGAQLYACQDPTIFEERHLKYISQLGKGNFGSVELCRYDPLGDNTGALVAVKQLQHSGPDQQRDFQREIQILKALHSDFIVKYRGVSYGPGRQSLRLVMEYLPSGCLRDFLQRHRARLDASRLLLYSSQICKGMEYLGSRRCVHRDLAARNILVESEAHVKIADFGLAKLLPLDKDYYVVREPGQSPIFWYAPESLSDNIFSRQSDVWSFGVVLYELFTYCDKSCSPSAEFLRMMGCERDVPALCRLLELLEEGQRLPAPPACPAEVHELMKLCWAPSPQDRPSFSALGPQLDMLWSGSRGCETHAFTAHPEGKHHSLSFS
# JAK2 = JAK2 (Homo sapiens, UniProt O60674); experiment: Caliper Mobility Shift Assay, kinase inhibition; format: biochemical; details: ATP by Km value
# JAK2, sequence (O60674 whole entry, species assumed): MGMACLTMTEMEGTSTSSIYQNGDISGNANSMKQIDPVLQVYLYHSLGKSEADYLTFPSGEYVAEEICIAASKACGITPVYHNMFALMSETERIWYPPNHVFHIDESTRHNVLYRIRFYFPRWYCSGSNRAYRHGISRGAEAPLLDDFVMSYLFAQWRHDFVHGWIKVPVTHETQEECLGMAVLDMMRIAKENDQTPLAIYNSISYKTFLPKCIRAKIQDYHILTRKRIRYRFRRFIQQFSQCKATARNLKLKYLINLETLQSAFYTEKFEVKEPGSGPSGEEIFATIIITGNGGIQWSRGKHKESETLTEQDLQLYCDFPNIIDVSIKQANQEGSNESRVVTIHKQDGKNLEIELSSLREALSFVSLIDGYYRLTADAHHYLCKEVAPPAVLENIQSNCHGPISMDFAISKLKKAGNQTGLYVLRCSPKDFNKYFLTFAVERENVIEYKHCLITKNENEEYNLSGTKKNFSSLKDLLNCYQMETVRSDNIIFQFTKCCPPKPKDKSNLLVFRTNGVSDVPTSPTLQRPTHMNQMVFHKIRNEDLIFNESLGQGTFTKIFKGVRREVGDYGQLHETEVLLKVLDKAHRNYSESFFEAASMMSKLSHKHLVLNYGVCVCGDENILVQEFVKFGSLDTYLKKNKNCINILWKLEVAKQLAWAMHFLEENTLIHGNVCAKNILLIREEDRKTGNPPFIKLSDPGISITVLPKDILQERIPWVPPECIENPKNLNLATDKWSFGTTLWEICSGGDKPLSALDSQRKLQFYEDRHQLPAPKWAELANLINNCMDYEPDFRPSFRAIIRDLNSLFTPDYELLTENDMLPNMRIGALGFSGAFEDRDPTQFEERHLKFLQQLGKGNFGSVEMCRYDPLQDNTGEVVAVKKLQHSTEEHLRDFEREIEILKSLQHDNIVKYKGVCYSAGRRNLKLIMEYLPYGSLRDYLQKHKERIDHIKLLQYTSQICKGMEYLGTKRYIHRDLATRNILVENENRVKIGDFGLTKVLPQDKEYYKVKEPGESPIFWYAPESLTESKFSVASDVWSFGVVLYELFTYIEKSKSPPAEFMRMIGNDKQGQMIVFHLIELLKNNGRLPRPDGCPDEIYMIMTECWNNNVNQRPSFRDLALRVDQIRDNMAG
# phosphorylation of JAK2 = experiment: CTLL-2 cells, IL-2 stimulated, Western blot of phosphorylation; format: cell-based; details: Mus musculus, starved 6 h with compound, IL-2 150 U/mL 10 min, phosphorylation of JAK2 by Western blot, read-out: IC50 g (nM) JAK2
# Protocol: (§1) Incubating for 10 min and collecting cells. Adding cell lysis buffer for cell lysis. Collecting protein to perform WEST-Blot detection, detecting phosphorylated JAK1, the phosphorylation of JAK2 and the phosphorylated STAT5, and obtaining the IC50 value.
# phosphorylated STAT5 = experiment: as above; format: cell-based; details: Mus musculus, starved 6 h with compound, IL-2 150 U/mL 10 min, phosphorylated STAT5 by Western blot, read-out: IC50 g (nM) STAT5
# Protocol: as §1
# phosphorylated JAK1 = experiment: as above; format: cell-based; details: Mus musculus, starved 6 h with compound, IL-2 150 U/mL 10 min, phosphorylated JAK1 by Western blot, read-out: IC50 g (nM) JAK1
# Protocol: as §1
# JAK1 = JAK1 (Homo sapiens, UniProt P23458); experiment: Caliper Mobility Shift Assay, kinase inhibition; format: biochemical; details: ATP by Km value
# JAK1, sequence (P23458 whole entry, species assumed): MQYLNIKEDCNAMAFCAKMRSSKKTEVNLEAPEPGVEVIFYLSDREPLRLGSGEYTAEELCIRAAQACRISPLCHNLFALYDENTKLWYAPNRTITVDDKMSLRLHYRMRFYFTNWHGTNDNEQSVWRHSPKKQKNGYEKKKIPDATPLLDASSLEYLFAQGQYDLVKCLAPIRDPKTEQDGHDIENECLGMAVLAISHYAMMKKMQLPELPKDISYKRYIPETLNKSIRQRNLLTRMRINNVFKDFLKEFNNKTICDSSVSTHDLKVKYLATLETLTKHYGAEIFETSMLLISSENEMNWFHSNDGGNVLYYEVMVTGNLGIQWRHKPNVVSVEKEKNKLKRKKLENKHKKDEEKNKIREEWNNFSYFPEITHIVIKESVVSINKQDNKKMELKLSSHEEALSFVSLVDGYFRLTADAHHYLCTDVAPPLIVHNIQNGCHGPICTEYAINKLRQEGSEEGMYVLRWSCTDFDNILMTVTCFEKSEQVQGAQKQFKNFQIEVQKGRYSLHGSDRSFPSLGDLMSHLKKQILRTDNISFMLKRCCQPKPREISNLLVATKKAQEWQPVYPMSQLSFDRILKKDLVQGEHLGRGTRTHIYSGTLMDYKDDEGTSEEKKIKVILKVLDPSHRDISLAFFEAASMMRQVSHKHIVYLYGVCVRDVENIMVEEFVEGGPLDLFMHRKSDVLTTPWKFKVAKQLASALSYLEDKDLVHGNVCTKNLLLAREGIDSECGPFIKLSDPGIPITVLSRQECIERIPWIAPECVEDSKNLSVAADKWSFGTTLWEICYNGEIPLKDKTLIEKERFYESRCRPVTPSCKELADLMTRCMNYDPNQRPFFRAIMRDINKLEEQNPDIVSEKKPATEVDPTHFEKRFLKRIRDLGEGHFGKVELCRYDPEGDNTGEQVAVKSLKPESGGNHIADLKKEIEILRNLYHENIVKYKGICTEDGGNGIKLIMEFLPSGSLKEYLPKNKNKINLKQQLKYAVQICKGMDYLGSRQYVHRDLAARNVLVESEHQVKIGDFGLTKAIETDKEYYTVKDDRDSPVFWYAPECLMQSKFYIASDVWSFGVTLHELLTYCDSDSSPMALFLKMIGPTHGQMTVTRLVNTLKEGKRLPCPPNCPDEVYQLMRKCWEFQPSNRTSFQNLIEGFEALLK
# [1] = test system: rat with rheumatoid arthritis; experiment: Collagen-induced rheumatoid arthritis model, arthritis score; format: in vivo; details: DBA/1J rat, bovine Type II collagen/CFA model, intragastric administration, scored 2 weeks after administration, 1-4 scoring method
# Protocol: For the function of the compound inhibiting rheumatoid arthritis, selecting DBA/1J rat, carrying out subcutaneous injection after complete emulsion of 50 ug of bovine Type II collagen and isometric complete Freund's adjuvant (CFA). Strengthening immunization once 21 days after adequate emulsion of 50 ug of same antigen and incomplete Freund's adjuvant (IFA). Starting observation and recording from the 45th day. Using 1-4 scoring method: 1 score, normal; 2 scores, swelling of one joint; 3 scores, swelling of more than one joint but not all joints; 4 scores, severe swelling or stiffness of the whole claw. Adding scores of all claws to obtain the total score of arthritis in rat. Showing successful model establishment when the total joint score of the rat is more than 1. After successfully establishing the model of rat with rheumatoid arthritis, using the compound of the invention to feed the rat by intragastric administration and scoring arthritis of the rat 2 weeks after administration.
IC50 (JAK3),IC50 (JAK2),IC50 (phosphorylation of JAK2),IC50 (phosphorylated STAT5),IC50 (phosphorylated JAK1),IC50 (JAK1),Compound,Score of arthritis [1]
521 nM,692 nM,192 nM,692 nM,30 nM,300 nM,"N#CCC1(n2cc(-c3ncnc4[nH]ccc34)c3ccccc32)CN(C(=O)[C@@H]2CCCN2)C1 (stereo in doubt) [Example 11, 2-(3-(3-(7H-pyrrole[2,3-d]pyrimidine-4-yl)-1H-indole-1-yl)-1-(pyrrolidine-2-carbonyl)azetidine-3-yl)acetonitrile]",–
–,–,–,–,–,–,"CCS(=O)(=O)N1CC(CC#N)(n2cc(-c3ncnc4[nH]ccc34)cn2)C1 [Baricitinib, reference compound]",2.4
100 nM,1.1 nM,18.4 nM,125 nM,26.3 nM,11 nM,"CCS(=O)(=O)N1CC(CC#N)(n2cc(-c3ncnc4[nH]ccc34)c3ccccc32)C1 [Example 1, 2-(3-(3-(7H-pyrrole[2,3-d]pyrimidine-4-yl)-1H-indole-1-yl)-1-(ethylsulfonyl)azetidine-3-yl)acetonitrile]",–
128 nM,0.9 nM,5.4 nM,146 nM,–,8 nM,"CS(=O)(=O)N1CC(CC#N)(n2cc(-c3ncnc4[nH]ccc34)c3ccccc32)C1 [Example 2, 2-(3-(3-(7H-pyrrole[2,3-d]pyrimidine-4-yl)-1H-indole-1-yl)-1-(methylsulfonyl)azetidine-3-yl)acetonitrile]",–
67 nM,3.5 nM,–,–,–,7 nM,N#CCC1(n2cc(-c3ncnc4[nH]ccc34)c3ccccc32)CN(S(=O)(=O)N2CCCC2)C1 [Example 10],–
34 nM,0.72 nM,–,–,–,3.5 nM,"CCS(=O)(=O)N1CC(CC#N)(n2cc(-c3ncnc4[nH]ccc34)c3ccc(Cl)cc32)C1 [Example 26, 2-(1-(ethylsulfonyl)-3-(6-chloro-3-(7H-pyrrole[2,3-d]pyrimidine-4-yl)-1H-indole-1-yl)azetidine-3-yl)acetonitrile]",–
64 nM,2.4 nM,–,–,–,6.5 nM,"CC(C)S(=O)(=O)N1CC(CC#N)(n2cc(-c3ncnc4[nH]ccc34)c3ccc(Cl)cc32)C1 [Example 28, 2-(1-(isopropylsulfonyl)-3-(6-chloro-3-(7H-pyrrole[2,3-d]pyrimidine-4-yl)-1H-indole-1-yl)azetidine-3-yl)acetonitrile]",–
21 nM,8.3 nM,–,–,–,3.5 nM,"CCS(=O)(=O)N1CC(CC#N)(n2cc(-c3ncnc4[nH]ccc34)c3ccc(Br)cc32)C1 [Example 31, 2-(1-(ethylsulfonyl)-3-(6-bromo-3-(7H-pyrrole[2,3-d]pyrimidine-4-yl)-1H-indole-1-yl)azetidine-3-yl)acetonitrile]",–
124 nM,6.3 nM,–,–,–,4.5 nM,"CS(=O)(=O)N1CC(CC#N)(n2cc(-c3ncnc4[nH]ccc34)c3ccc(F)c(F)c32)C1 [Example 32, 2-(1-(methylsulfonyl)-3-(5,6-difluoro-3-(7H-pyrrole[2,3-d]pyrimidine-4-yl)-1H-indole-1-yl)azetidine-3-yl)acetonitrile]",–
67 nM,28.4 nM,–,–,–,13.3 nM,"CCCS(=O)(=O)N1CC(CC#N)(n2cc(-c3ncnc4[nH]ccc34)c3c(F)cc(F)cc32)C1 [Example 43, 2-(1-(propylsulfonyl)-3-(6,8-difluoro-3-(7H-pyrrole[2,3-d]pyrimidine-4-yl)-1H-indole-1-yl)azetidine-3-yl)acetonitrile]",–
58 nM,11.6 nM,–,–,–,30.5 nM,"CCS(=O)(=O)N1CC(CC#N)(n2cc(-c3ncnc4[nH]ccc34)c3cc(F)cc(F)c32)C1 [Example 47, 2-(1-(ethylsulfonyl)-3-(5,7-difluoro-3-(7H-pyrrole[2,3-d]pyrimidine-4-yl)-1H-indole-1-yl)azetidine-3-yl)acetonitrile]",–
72 nM,4.6 nM,–,–,–,10.5 nM,"CCS(=O)(=O)N1CC(CC#N)(n2cc(-c3ncnc4[nH]ccc34)c3c(F)ccc(F)c32)C1 [Example 48, 2-(1-(ethylsulfonyl)-3-(5,8-difluoro-3-(7H-pyrrole[2,3-d]pyrimidine-4-yl)-1H-indole-1-yl)azetidine-3-yl)acetonitrile]",–
172 nM,41.6 nM,–,–,–,45.5 nM,"CCS(=O)(=O)N1CC(CC#N)(n2cc(-c3ncnc4[nH]ccc34)c3ccc(CC#N)cc32)C1 [Example 51, 2-(1-(ethylsulfonyl)-3-(6-ethylcyano-3-(7H-pyrrole[2,3-d]pyrimidine-4-yl)-1H-indole-1-yl)azetidine-3-yl)acetonitrile]",–
17 nM,1.4 nM,–,–,–,5.4 nM,"CCS(=O)(=O)N1CC(CC#N)(n2cc(-c3ncnc4[nH]ccc34)c3ccc(CC(F)(F)F)cc32)C1 [Example 53, 2-(1-(ethylsulfonyl)-3-(6-trifluoroethyl-3-(7H-pyrrole[2,3-d]pyrimidine-4-yl)-1H-indole-1-yl)azetidine-3-yl)acetonitrile]",–
36 nM,2.5 nM,–,–,–,15.2 nM,"CCS(=O)(=O)N1CC(CC#N)(n2cc(-c3ncnc4[nH]ccc34)c3ccc(C)cc32)C1 [Example 54, 2-(1-(ethylsulfonyl)-3-(6-methyl-3-(7H-pyrrole[2,3-d]pyrimidine-4-yl)-1H-indole-1-yl)azetidine-3-yl)acetonitrile]",–
90 nM,2.8 nM,–,–,–,25.4 nM,"CCOc1ccc2c(-c3ncnc4[nH]ccc34)cn(C3(CC#N)CN(S(=O)(=O)CC)C3)c2c1 [Example 59, 2-(1-(ethylsulfonyl)-3-(6-ethoxyl-3-(7H-pyrrole[2,3-d]pyrimidine-4-yl)-1H-indole-1-yl)azetidine-3-yl)acetonitrile]",–
30 nM,1 nM,29.9 nM,130 nM,33.9 nM,3.6 nM,"CCS(=O)(=O)N1CC(CC#N)(n2cc(-c3ncnc4[nH]ccc34)c3cc(F)ccc32)C1 [Example 62, 2-(1-(ethylsulfonyl)-3-(5-fluoro-3-(7H-pyrrole[2,3-d]pyrimidine-4-yl)-1H-indole-1-yl)azetidine-3-yl)acetonitrile]",–
232 nM,2.4 nM,38.3 nM,196 nM,75.2 nM,7.9 nM,"CCS(=O)(=O)N1CC(CC#N)(n2cc(-c3ncnc4[nH]ccc34)c3cc(C(F)(F)F)ccc32)C1 [Example 63, 2-(1-(ethylsulfonyl)-3-(5-trifluoromethyl-3-(7H-pyrrole[2,3-d]pyrimidine-4-yl)-1H-indole-1-yl)azetidine-3-yl)acetonitrile]",–
